# Laboratory results reported in paper PMC10111420, “Optimization of Host Cell-Compatible, Antimicrobial Peptides Effective against Biofilms and Clinical Isolates of Drug-Resistant Bacteria” (ACS Infectious Diseases, 2023).
# Read-outs that look alike come from different tables or passages of the source. Where a SMILES comes first, the peptide text is derived from it. Bridges are numbered along the chain shown (N, C = ends). [ ]: non-standard residue; d: D form. dAgb = N=C(N)NCC[C@@H](N)C(=O)O; βAla = NCCC(=O)O
# Tests used:
# S. aureus (ATCC 25923) = test system: S. aureus (ATCC 25923)
# Experimental: (§1) All peptide variants were synthesized and purified as described previously.[5],[7] They were tested in broth dilution in the presence and absence of 1 × 10^9 human RBCs per mL, 20% of the concentration in human blood, against Escherichia coli, K. pneumoniae, and Staphylococcus aureus. […] The toxicity of the variants was tested by measuring hemolysis as well as cytotoxicity against human WI-38 fibroblast cells.
# (§2) Subcultures, prepared by inoculating 25 mL of fresh tryptic soy broth (TSB) with 200 μL of an overnight culture, were grown to log phase (OD600 = 0.3–0.6), after which cell counts were determined by measuring the OD600 (1.0 = 5 × 10^8 CFU/mL for E. coli, 4 × 10^8 CFU/mL for K. pneumoniae, 4 × 10^8 CFU/mL for P. aeruginosa, 1.5 × 10^8 CFU/mL for S. aureus). Bacterial cells were diluted to appropriate concentrations in TSB. We used the following clinical bacterial isolates of Klebsiella pneumoniae in this study: Strains KP6, KP46, NDM-1, KP396, and KP398 have been previously described.[43] ST58 strains C2, C3, and I2 are also described.[41] […] MRSA, […] S. aureus strain, is SAP400, a USA400 strain of community-acquired MRSA. […] The second independent set of K. pneumoniae isolates are previously described.[20],[21]
# (§3) The antibiotics were serially diluted by a factor of 2:3 horizontally across 96-well plates from Corning, 25 μL per well. One column was reserved for controls. For the assays performed in the presence of RBC, type O+ human RBCs at 0 or 2.5 × 10^9 cells/mL were added in 50 μL aliquots to all wells. Following a 30-min incubation, 50 μL of TSB, inoculated with 5 × 10^5 CFU/mL, was added to all wells, and plates were incubated overnight at 37 °C. Following overnight incubation at 37 °C, the OD600 was measured (values of less than 0.1 were considered sterilized). To assess bacterial growth in the assays with RBC, the OD600 was measured after a second-day inoculation with 10 μL of solution from the original plate added to 100 μL of sterile TSB followed by overnight incubation.
# (§4) Experiments were repeated four to eight times independently, with pairs of replicate measurements on each 96-well plate. After overnight growth, optical densities were measured at 660 nm and the sterilized wells were identified by having O.D. < 0.08. Nonsterilized wells were nearly opaque with OD > 0.6. For each measurement, we recorded the largest dilution that sterilized the bacteria. Statistics are done on dilution numbers, rather than calculated concentrations, because only the former have normal distributions.
# human RBCs = assay type: cell-based
# Experimental: Human O+ erythrocytes were obtained from Interstate Blood Bank, Inc. Red blood cells were subjected to four or more cycles of centrifugation at 1000g with resuspension in fresh PBS. Following the final wash step, the supernatant was clear and colorless. RBC concentration was determined using a standard hemocytometer.
# Peptide was serially diluted in PBS starting at a concentration of 100 μM. The final volume of peptide in each well was 50 μL. To each well, 50 μL of RBCs in PBS at 2 × 10^8 cells/mL was added. As a positive lysis control, 1% Triton was used. The mixtures were incubated at 37 °C for 1 h, after which they were centrifuged at 1000g for 5 min. After centrifugation, 10 μL of supernatant was transferred to 90 μL of DI H2O in a fresh 96-well plate. The absorbance of released hemoglobin at 410 nm was recorded, and the fractional hemolysis was calculated based on the 100 and 0% lysis controls. At least three independent experiments were performed. Results shown are averages.
# in vitro = assay type: cell-based, human; details: human
# Experimental: (§5) The day before cytotoxicity experiments, the 10,000 cells/well were plated in a 96-well tissue-culture plate. […] To perform the cytotoxicity assay, media was removed from the wells and replaced with peptide solutions. […] The plate was read for SYTOX fluorescence every 5 min for an hour with an excitation wavelength of 504 nm and an emission wavelength of 523 nm. Percent cytotoxicity was calculated at 60 min using the 100 and 0% lysis controls. At least three independent experiments were averaged.
# [1] = test system: K. pneumoniae clinical isolates; assay: microbe, parasite or virus in culture
# Experimental: as §2
# as §3, with “Following a 30-min incubation, 50 μL of TSB, inoculated with 5 × 10^5 CFU/mL, was added to all wells, and plates were incubated overnight at 37 °C. Following overnight incubation at 37 °C, the OD600 was measured (values of less than 0.1 were considered sterilized).” left out
# as §4
# [2] = test system: MRSA SAP400, a USA400 strain; assay: microbe, parasite or virus in culture
# Experimental: as §2, §3, §4
# [3] = test system: Pseudomonas aeruginosa clinical isolates; assay: microbe, parasite or virus in culture
# Experimental: as §2, §3, §4
# [4] = test system: K. pneumoniae clinical isolates
# Experimental: as §2, §3, §4
# [5] = test system: Acinetobacter baumannii (PDR) Tulane isolate
# [6] = test system: Escherichia coli (ATCC 25922)
# Experimental: as §1, §2, §3, §4
# [7] = test system: WI-38 human fibroblast cells; assay: in vitro; assay type: cell-based
# Experimental: as §5
# [8] = broth dilution, at least three independent measurements, SE about 40%, highest concentration 150 μM
compound,measurement,setting,value
CC(C)C[C@@H](NC(=O)[C@@H](CCNC(=N)N)NC(=O)[C@@H](CCNC(=N)N)NC(=O)[C@@H](C)NC(=O)[C@@H](Cc1c[nH]c2ccccc12)NC(=O)[C@@H](CCCNC(=N)N)NC(=O)[C@H](N)CCCNC(=N)N)C(=O)N[C@H](C)C(=O)N[C@H](Cc1ccccc1)C(=O)N[C@H](C)C(=O)N[C@H](Cc1ccccc1)C(=O)N[C@H](CCCNC(=N)N)C(=O)N[C@H](CCCNC(=N)N)C(N)=O [D-CONGA- NorR] (H-[dR][dR][dW][dA][dAgb][dAgb][dL][dA][dF][dA][dF][dR][dR]-NH2; N-terminus and C-terminus assumed),"MIC in Broth Dilution, S. Aureus",S. aureus (ATCC 25923),17 µM
"CC(C)C[C@@H](NC(=O)[C@@H](CCCNC(=N)N)NC(=O)[C@H](CCCNC(=N)N)NC(=O)[C@@H](C)NC(=O)[C@@H](Cc1c[nH]c2ccccc12)NC(=O)[C@@H](CCCNC(=N)N)NC(=O)[C@H](N)CCCNC(=N)N)C(=O)N[C@H](C)C(=O)N[C@H](Cc1ccccc1)C(=O)N[C@@H](C)C(=O)N[C@H](Cc1ccccc1)C(=O)N[C@H](CCCNC(=N)N)C(=O)N[C@H](CCCNC(=N)N)C(N)=O [D-CONGA-L-R5,A10] (H-[dR][dR][dW][dA]R[dR][dL][dA][dF]A[dF][dR][dR]-NH2; N-terminus and C-terminus assumed)",Hemolysis at 100 μM (fractional hemolysis),human RBCs,0.04
same,EC50 at 60 min,in vitro,> 1000 µM
CC(C)C[C@@H](NC(=O)CCNC(=O)[C@@H](CCCNC(=N)N)NC(=O)[C@@H](CCCNC(=N)N)NC(=O)[C@@H](C)NC(=O)[C@@H](Cc1c[nH]c2ccccc12)NC(=O)[C@@H](CCCNC(=N)N)NC(=O)[C@H](N)CCCNC(=N)N)C(=O)N[C@H](C)C(=O)N[C@H](Cc1ccccc1)C(=O)N[C@H](C)C(=O)N[C@H](Cc1ccccc1)C(=O)N[C@H](CCCNC(=N)N)C(=O)N[C@H](CCCNC(=N)N)C(N)=O [D-CONGA-βA7] (H-[dR][dR][dW][dA][dR][dR][βAla][dL][dA][dF][dA][dF][dR][dR]-NH2; N-terminus and C-terminus assumed),Hemolysis at 100 μM (fractional hemolysis),human RBCs,0.02
same,EC50 at 60 min,in vitro,> 1000 µM
CC(C)C[C@@H](NC(=O)[C@@H](CCCNC(=N)N)NC(=O)[C@@H](CCCNC(=N)N)NC(=O)[C@@H](C)NC(=O)[C@@H](Cc1c[nH]c2ccccc12)NC(=O)[C@@H](CCCNC(=N)N)NC(=O)[C@H](N)CCCNC(=N)N)C(=O)N[C@H](C)C(=O)N[C@H](Cc1ccccc1)C(=O)N[C@H](C)C(=O)N[C@H](Cc1ccccc1)C(=O)N[C@H](CCCNC(=N)N)C(=O)N[C@H](CCCNC(=N)N)C(N)=O [D-CONGA] (H-[dR][dR][dW][dA][dR][dR][dL][dA][dF][dA][dF][dR][dR]-NH2),Hemolysis at 100 μM (fractional hemolysis),human RBCs,0.06
same,"MIC, KP 6",[1]; clinical isolates,4.2 µM
same,"MIC, KP 46",[1]; clinical isolates,4.4 µM
same,"MIC, KP 398",[1]; clinical isolates,32 µM
same,"MIC, KP 2146NDM-1",[1]; clinical isolates,15 µM
same,"MIC, KP (CRE)",[1]; clinical isolates,23 µM
same,"MIC, KP ATCC 33495",[1]; clinical isolates,5.0 µM
same,"MIC, KP ST258 C2",[1]; clinical isolates,64 µM
same,"MIC, KP ST258 C3",[1]; clinical isolates,92 µM
same,"MIC, KP ST258 I2",[1]; clinical isolates,3.2 µM
same,"MIC, KP ST396",[1]; clinical isolates,2.0 µM
same,"MIC, MRSA USA400",[2]; USA400,2.6 µM
same,"MIC, PA(mucoid)",[3]; clinical isolates,4.4 µM
same,"MIC, PA(non-mucoid)",[3]; clinical isolates,1.3 µM
same,"K. Pneumoniae Isolate MIC, 1000527",[4],> 25 µM
same,"K. Pneumoniae Isolate MIC, 1002565",[4],> 25 µM
same,"K. Pneumoniae Isolate MIC, 1100770",[4],7.3 µM
same,"K. Pneumoniae Isolate MIC, 1100975",[4],14 µM
same,"K. Pneumoniae Isolate MIC, ATCC 43816",[4],5.4 µM
same,"K. Pneumoniae Isolate MIC, ATCC 700721",[4],5.4 µM
same,"K. Pneumoniae Isolate MIC, K6",[4],2.7 µM
same,"K. Pneumoniae Isolate MIC, K 6.1",[4],14 µM
same,"K. Pneumoniae Isolate MIC, K 6.2",[4],14 µM
same,"K. Pneumoniae Isolate MIC, KP 80",[4],14 µM
same,"K. Pneumoniae Isolate MIC, KP NIH 1",[4],> 25 µM
same,"K. Pneumoniae Isolate MIC, KP NIH 10",[4],> 25 µM
same,"K. Pneumoniae Isolate MIC, KP NIH 24",[4],> 25 µM
same,"K. Pneumoniae Isolate MIC, KP NIH 27",[4],> 25 µM
same,"K. Pneumoniae Isolate MIC, KP NIH 29",[4],14 µM
same,"K. Pneumoniae Isolate MIC, KP NIH 30",[4],7.3 µM
same,"K. Pneumoniae Isolate MIC, KP NIH 31",[4],7.3 µM
same,"K. Pneumoniae Isolate MIC, KP NIH 32",[4],> 25 µM
same,"K. Pneumoniae Isolate MIC, KP NIH 33",[4],3.6 µM
same,"MIC, AB (PDR)Tulane",[5]; PDR) Tulane isolate,2.4 µM
"CC(C)C[C@H](NC(=O)[C@H](CCCNC(=N)N)NC(=O)[C@H](CCCNC(=N)N)NC(=O)[C@H](C)NC(=O)[C@H](Cc1c[nH]c2ccccc12)NC(=O)[C@H](CCCNC(=N)N)NC(=O)[C@H](N)CCCNC(=N)N)C(=O)N[C@@H](C)C(=O)N[C@@H](Cc1ccccc1)C(=O)N[C@@H](C)C(=O)N[C@@H](Cc1ccccc1)C(=O)N[C@@H](CCCNC(=N)N)C(=O)N[C@H](CCCNC(=N)N)C(N)=O [L-CONGA- (R1,R13)] (H-[dR]RWARRLAFAFR[dR]-NH2; N-terminus and C-terminus assumed)","MIC in Broth Dilution, E. coli",[6],26 µM
same,Hemolysis at 100 μM (fractional hemolysis),human RBCs,0.01
same,EC50,[7],134 µM
CC(C)C[C@@H]1NC(=O)[C@H](CCCNC(=N)N)NC(=O)[C@H](CCCNC(=N)N)NC(=O)[C@H](C)NC(=O)[C@H](Cc2c[nH]c3ccccc23)NC(=O)[C@H](CCCNC(=N)N)NC(=O)[C@H](CCCNC(=N)N)NC(=O)CC[C@@H](C(N)=O)NC(=O)[C@H](CCCNC(=N)N)NC(=O)[C@H](CCCNC(=N)N)NC(=O)[C@H](Cc2ccccc2)NC(=O)[C@H](C)NC(=O)[C@H](Cc2ccccc2)NC(=O)[C@H](C)NC1=O [L-CONGA-E cycl.] (RRWARRLAFAFRRE-NH2; lactam N-14),"MIC in Broth Dilution, E. coli",[6],23 µM
same,Hemolysis at 100 μM (fractional hemolysis),human RBCs,0.03
CC(C)C[C@@H]1NC(=O)[C@H](CCCNC(=N)N)NC(=O)[C@H](CCCNC(=N)N)NC(=O)[C@H](C)NC(=O)[C@H](Cc2c[nH]c3ccccc23)NC(=O)[C@H](CCCNC(=N)N)NC(=O)[C@H](CCCNC(=N)N)NC(=O)[C@H](CCCNC(=N)N)NC(=O)[C@H](CCCNC(=N)N)NC(=O)[C@H](Cc2ccccc2)NC(=O)[C@H](C)NC(=O)[C@H](Cc2ccccc2)NC(=O)[C@H](C)NC1=O [L-CONGA-OH cycl.] (cyclo(RRWARRLAFAFRR)),"MIC in Broth Dilution, E. coli",[6],13 µM
same,Hemolysis at 100 μM (fractional hemolysis),human RBCs,0.07
gentamycin,"MIC, KP 6",[1]; [8],> 150 µM
same,"MIC, KP 46",[1]; [8],1.6 µM
same,"MIC, KP 398",[1]; [8],1.9 µM
same,"MIC, KP 2146NDM-1",[1]; [8],> 150 µM
same,"MIC, KP (CRE)",[1]; [8],5.2 µM
same,"MIC, KP ATCC 33495",[1]; [8],1.9 µM
same,"MIC, KP ST258 C2",[1]; [8],> 150 µM
same,"MIC, KP ST258 C3",[1]; [8],> 150 µM
same,"MIC, KP ST258 I2",[1]; [8],8.3 µM
same,"MIC, KP ST396",[1]; [8],2.0 µM
same,"MIC, MRSA USA400",[2]; [8],> 150 µM
same,"MIC, PA(mucoid)",[3]; [8],5.5 µM
same,"MIC, PA(non-mucoid)",[3]; [8],8.3 µM
same,"MIC, AB (PDR)Tulane",[5]; [8],> 150 µM
